# Laboratory results: patent US5955479A, “Levobupivacaine for managing chronic pain” (Darwin Discovery Ltd., priority 1993, dated 1999)
# Counter-ions that a name gives are not always drawn.
# Tests used:
# [1] = Vanhoutte et al (1991); Denson et al (1992); cited from earlier work
# [2] = Tissue concentrations of bupivacaine enantiomers in sheep post-mortem after increasing bolus doses of racbupivacaine HCl until fatal outcome; type: in vivo
# Procedure: (§1) Four sheep weighing 39-49 kg (mean 44, SD 4 kg) were given increasing bolus doses (from 40 mg) of racbupivacaine HCl These were administered at least 1 day apart via a PVC cannula until a fatal outcome resulted. The heart and brain were removed within 20 min of death to be analysed for bupivacaine concentration. The heart was removed by transection through the great vessels approximately 20 mm above the level of the aortic valve, and 20 mm below the caudal border of the right atrium. Blood was immediately expressed from the cardiac chambers, and representative samples of the left and right atrium and ventricle were obtained, blotted and stored frozen (-20° C.) until assay. The brain was removed by transection at the level of the lower border of the pons, blotted and stored frozen as for the heart tissue.
# The variability in the fatal doses (80-200 mg) was reflected in the tissue concentrations measured post-mortem. Larger differences in the concentrations of both bupivacaine enantiomers in the atrium and ventricle were apparent.
# [3] = described in PCT/GB94/02249; cited from earlier work
# [4] = Fatal dose of racbupivacaine HCl in sheep (increasing bolus doses until a fatal outcome); type: in vivo
# Procedure: as §1
# [5] = some pain syndromes; cited from earlier work
# [6] = chronic epidural and opioid infusions, 0.1 to 0.5% bupivacaine, cancer pain; cited from earlier work
# [7] = surgical wound infiltrated before closure, 0.25%; cited from earlier work
# [8] = levobupivacaine vs dexbupivacaine
# [9] = sheep No. 1, fatal dose 80 mg racbupivacaine HCl
# [10] = sheep No. 2, fatal dose 80 mg racbupivacaine HCl
# [11] = sheep No. 3, fatal dose 200 mg racbupivacaine HCl
# [12] = sheep No. 4, fatal dose 200 mg racbupivacaine HCl
smiles,measurement,setting,value
CCCCN1CCCC[C@H]1C(=O)Nc1c(C)cccc1C [levobupivacaine],Cardiotoxicity relative to dexbupivacaine and racemic bupivacaine,[1],probably less cardiotoxic than dexbupivacaine and racemic bupivacaine
same,Accumulation in the heart and brain,[2]; [8],does not accumulate in the heart and brain as much as the other component (dexbupivacaine)
same,Tissue uptake into ventricle and brain vs dexbupivacaine,[2]; [8],less tissue uptake of levobupivacaine into ventricle and brain than dexbupivacaine
same,Clearance,"[2]; levobupivacaine vs dexbupivacaine, inferred from tissue uptake",improved clearance
same,"Tissue concentration, Atrium",[2]; [9],6.22 µg/g
same,"Tissue concentration, Brain",[2]; [9],6.53 µg/g
same,"Tissue concentration, Ventricle",[2]; [9],8.44 µg/g
same,"Tissue concentration, Atrium",[2]; [10],3.65 µg/g
same,"Tissue concentration, Brain",[2]; [10],4.59 µg/g
same,"Tissue concentration, Ventricle",[2]; [10],7.36 µg/g
same,"Tissue concentration, Atrium",[2]; [11],18.0 µg/g
same,"Tissue concentration, Brain",[2]; [11],11.7 µg/g
same,"Tissue concentration, Ventricle",[2]; [11],44.1 µg/g
same,"Tissue concentration, Atrium",[2]; [12],21.2 µg/g
same,"Tissue concentration, Brain",[2]; [12],16.3 µg/g
same,"Tissue concentration, Ventricle",[2]; [12],33.3 µg/g
same,Cardiodepressant effect relative to racemic bupivacaine,[3],reduced cardiodepressant effect
CCCCN1CCCCC1C(=O)Nc1c(C)cccc1C (racemic) [racbupivacaine HCl],Fatal doses (variability),"[4]; four sheep, increasing bolus doses",80 to 200 mg
same,Fatal dose,"[4]; sheep No. 1, increasing bolus doses",80 mg
same,Fatal dose,"[4]; sheep No. 2, increasing bolus doses",80 mg
same,Fatal dose,"[4]; sheep No. 3, increasing bolus doses",200 mg
same,Fatal dose,"[4]; sheep No. 4, increasing bolus doses",200 mg
"CCCCN1CCCCC1C(=O)Nc1c(C)cccc1C (racemic) [racemic bupivacaine, 1-butyl-N-(2,6-dimethylphenyl)-2-piperidinecarboxamide]",Analgesic usefulness in chronic administration,[5],useful in chronic administration as an analgesic in some pain syndromes
same,Bupivacaine clearance,[6],progressive reduction in bupivacaine clearance
same,"R:S ratio of tissue concentration, Atrium",[2]; [9],0.92
same,"R:S ratio of tissue concentration, Brain",[2]; [9],1.06
same,"R:S ratio of tissue concentration, Ventricle",[2]; [9],1.18
same,"R:S ratio of tissue concentration, Atrium",[2]; [10],1.08
same,"R:S ratio of tissue concentration, Brain",[2]; [10],1.08
same,"R:S ratio of tissue concentration, Ventricle",[2]; [10],1.05
same,"R:S ratio of tissue concentration, Atrium",[2]; [11],0.99
same,"R:S ratio of tissue concentration, Brain",[2]; [11],1.09
same,"R:S ratio of tissue concentration, Ventricle",[2]; [11],1.03
same,"R:S ratio of tissue concentration, Atrium",[2]; [12],1.02
same,"R:S ratio of tissue concentration, Brain",[2]; [12],1.08
same,"R:S ratio of tissue concentration, Ventricle",[2]; [12],1.03
same,Control of post-operative pain,[7],effective in the control of post-operative pain
same,Opioid requirements of patients recovering from herniorrhaphy,[7],reduce the opioid requirements
CCCCN1CCCC[C@@H]1C(=O)Nc1c(C)cccc1C [dexbupivacaine],Uptake of enantiomers by ventricle and brain,"[2]; both P=0.03 by the Students paired t test, four sheep",more (+)-(R)- than (-)-(S)-bupivacaine being taken up by these tissues
same,Uptake of enantiomers by atrium,"[2]; four sheep, difference R vs S",This was not so for the atrium
same,"Tissue concentration, Atrium",[2]; [9],5.70 µg/g
same,"Tissue concentration, Brain",[2]; [9],6.91 µg/g
same,"Tissue concentration, Ventricle",[2]; [9],9.93 µg/g
same,"Tissue concentration, Atrium",[2]; [10],3.94 µg/g
same,"Tissue concentration, Brain",[2]; [10],4.97 µg/g
same,"Tissue concentration, Ventricle",[2]; [10],7.70 µg/g
same,"Tissue concentration, Atrium",[2]; [11],17.9 µg/g
same,"Tissue concentration, Brain",[2]; [11],12.7 µg/g
same,"Tissue concentration, Ventricle",[2]; [11],45.6 µg/g
same,"Tissue concentration, Atrium",[2]; [12],21.5 µg/g
same,"Tissue concentration, Brain",[2]; [12],17.2 µg/g
same,"Tissue concentration, Ventricle",[2]; [12],34.1 µg/g
